Measured values as given in patent US20070281865A1, “MULTI-FUNCTIONAL SPACER FOR GLYCANS” (priority 2006, published 2007).
“Also recorded” adds a separate entry of the source.

Tests used:
[1] = system: anti-carbohydrate antibodies in sera of metastatic breast cancer patients; assay: Sera of metastatic breast cancer patients on glycan array; type: binding, Human; details: sera 1:25; 9 MBC patients, 10 healthy
Description: Individual (not pooled) sera were collected from 9 patients who were diagnosed with metastatic breast cancer (MBC). Blood samples were collected before treatment, so that therapeutic intervention would not interfere with patient immune responses. One patient with breast cancer but with good prognosis (IDC, Stage 1) was also included in the study. As control, or “healthy” sera, sera from ten healthy individuals, 5 female and 5 male, with no known malignancies was collected.
(§1) Sera were diluted 1:25 with PBS containing 3% BSA, and placed on the glycan array slide in humidified chamber at room temperature for 90 min. The glycan array slide was then rinsed gently with PBS/0.05% Tween, incubated with biotinylated goat antibody against human IgG, IgM and IgA, rinsed in PBS/0.05% Tween, and incubated with streptavidin-Alexa488 fluorescent dye. Following rinses in PBS/0.05% Tween and H2O, glycan array slides were dried and scanned using the commercial DNA array scanner. […] Signal to background was typically greater 50:1 and no background subtractions were performed. Data were plotted using MS Excel software.

[2] = system: Human anti-HIV 2G12 monoclonal antibody; assay: 2G12 binding on glycan array; details: for binding of 2G12 antibody (in words): glycan array, 2G12 30 μg/mL pre-complexed with goat anti-human-IgG-FITC
Source text: Glycan array fabrication.
Glycan Binding Protein binding assay. […] Saliva samples were similarly handled.
Image acquisition and signal processing. […] Data were plotted using MS Excel software.

[3] = system: antibodies in serum of patients who received porcine fetal pancreas islet-like cell clusters; assay: Sera of xenotransplant recipients on glycan array; type: binding, Human; details: before and 1, 6, 12 months after transplantation
Description: In 1991-1994, several diabetic (I) patients received transplantation of porcine fetal pancreas islet-like cell clusters (ICC). See, Groth, C. G. et al. Transplantation of porcine fetal pancreas to diabetic patients, The Lancet 344: 1402-4 (1994). The inventor analyzed serum from three of these patients before transplant (t=0), 1 months after (t=1), 6 months after (t=2) and 12 months after (t=3) transplant.
as §1, with “as needed” for “1:25”

Concanavalin A (Con A) = Concanavalin A (Con A) (Canavalia ensiformis, UniProt P02866); details: printing times up to 5 hours
[4] = pKa of deprotected spacer; type: physicochemical

Molecule: Fucose-alpha2-Gal-beta3-GalNAc-beta3-Gal-alpha-4-Gal-beta4-Glc [Globo-H]
- serum antibodies against glycan in metastatic breast cancer patients versus healthy individuals (in words) [1]: bind and higher

Molecule: Manα1-6(Manα1-3)Manα1-6(Manα1-2Manα1-3)Manβ1-4GlcNAcβ1-4GlcNAcβSp [Glycan 142]
- binding of 2G12 antibody (in words) [2]: did not support binding at all

Molecule: Galβ1-4(Fucα1-3)GlcNAcβSp [Glycan 65]
- serum antibodies against glycan in xenotransplant recipients (in words) [3]: do not have antibodies; also recorded: essentially no anti-LeX antibodies are detected

Molecule: CC(=O)N[C@H]1[C@H](O[C@H]2[C@@H](O)[C@@H](CO)O[C@@H](O[C@H]3[C@H](O)[C@@H](O)C(O)O[C@@H]3CO)[C@@H]2O)O[C@H](CO)[C@@H](O)[C@@H]1O (stereo partly drawn) [LNT-2, GlcNAc-beta3-Gal-beta4-Glc-beta]
- serum antibodies against glycan in metastatic breast cancer patients versus healthy individuals (in words) [1]: bind and higher

Molecule: Neu5Gc(2-6)GalNAc
- serum antibodies against glycan in metastatic breast cancer patients versus healthy individuals (in words) [1]: bind

Molecule: Manα1-6(Manα1-2Manα1-3)Manα1-6(Manα1-2Manα1-3)Manβ1-4GlcNAcβ1-4GlcNAcβSp [Glycan 143]
- binding of 2G12 antibody (in words) [2]: did not support binding at all

Molecule: Manα1-3Manα1-6(Manα1-2Manα1-3)Manβ1-4GlcNAcβ1-4GlcNAcβSp [Glycan 140]
- binding of 2G12 antibody (in words) [2]: did not support binding at all

Molecule: Manα1-2Manα1-3(Manα1-2Manα1-6)ManαSp [Glycan 136]
- variation in maximal binding of con A (Concanavalin A (Con A)): less than 10%
- Rel. spec. (Relative binding activity) ([2]; binding of 2G12 to mannose containing glycans in the glycan array): +++ (+++ > 25,000)
- binding of 2G12 antibody (in words) [2]: strong binding

Molecule: Manα1-2Manα1-6(Manα1-3)Manα1-6(Manα1-2Manα1-3)Manβ1-4GlcNAcβ1-4GlcNAcβSp [Glycan 144]
- binding of 2G12 antibody (in words) [2]: strong preference for binding

Molecule: Gal-beta3-GalNAc-beta4-[Neu5Ac-alpha3]-Gal-beta4-Glc-beta [GM1]
- serum antibodies against glycan in metastatic breast cancer patients versus healthy individuals (in words) [1]: bind and higher

Molecule: C=CCCONC [Compound 1033]
- pKa1 [4]: 4.8

Molecule: Neu5Acα2-6GalNAcα-
- serum antibodies against glycan in metastatic breast cancer patients versus healthy individuals (in words) [1]: significantly higher levels

Molecule: Manα1-2Manα1-2Manα1-3(Manα1-2Manα1-3(Manα1-2Manα1-6)Manα1-6)Manβ1-4GlcNAcβ1-4GlcNAcβSp [Glycan 145]
- binding of 2G12 antibody (in words) ([2]; listed as Man9): relatively weakly bound
- binding of 2G12 antibody (in words) ([2]; listed as Man-9-N-glycans): smaller level of binding

B1: Glycan 4: Ceruloplasmine mixture of bi and tri- and tetra-antenary N-glycans (protein, UniProt P00450 20-1065, looked up)
Ceruloplasmin: KEKHYYIGIIETTWDYASDHGEKKLISVDTEHSNIYLQNGPDRIGRLYKKALYLQYTDETFRTTIEKPVWLGFLGPIIKAETGDKVYVHLKNLASRPYTFHSHGITYYKEHEGAIYPDNTTDFQRADDKVYPGEQYTYMLLATEEQSPGEGDGNCVTRIYHSHIDAPKDIASGLIGPLIICKKDSLDKEKEKHIDREFVVMFSVVDENFSWYLEDNIKTYCSEPEKVDKDNEDFQESNRMYSVNGYTFGSLPGLSMCAEDRVKWYLFGMGNEVDVHAAFFHGQALTNKNYRIDTINLFPATLFDAYMVAQNPGEWMLSCQNLNHLKAGLQAFFQVQECNKSSSKDNIRGKHVRHYYIAAEEIIWNYAPSGIDIFTKENLTAPGSDSAVFFEQGTTRIGGSYKKLVYREYTDASFTNRKERGPEEEHLGILGPVIWAEVGDTIRVTFHNKGAYPLSIEPIGVRFNKNNEGTYYSPNYNPQSRSVPPSASHVAPTETFTYEWTVPKEVGPTNADPVCLAKMYYSAVEPTKDIFTGLIGPMKICKKGSLHANGRQKDVDKEFYLFPTVFDENESLLLEDNIRMFTTAPDQVDKEDEDFQESNKMHSMNGFMYGNQPGLTMCKGDSVVWYLFSAGNEADVHGIYFSGNTYLWRGERRDTANLFPQTSLTLHMWPDTEGTFNVECLTTDHYTGGMKQKYTVNQCRRQSEDSTFYLGERTYYIAAVEVEWDYSPQREWEKELHHLQEQNVSNAFLDKGEFYIGSKYKKVVYRQYTDSTFRVPVERKAEEEHLGILGPQLHADVGDKVKIIFKNMATRPYSIHAHGVQTESSTVTPTLPGETLTYVWKIPERSGAGTEDSACIPWAYYSTVDQVKDLYSGLIGPLIVCRRPYLKVFNPRRKLEFALLFLVFDENESWYLDDNIKTYSDHPEKVNKDDEEFIESNKMHAINGRMFGNLQGLTMHVGDEVNWYLMGMGNEIDLHTVHFHGHSFQYKHRGVYSSDVFDIFPGTYQTLEMFPRTPGIWLLHCHVTDHIHAGMETTYTVLQNEDTKSG
modifications: N-glycans
- serum antibodies against glycan in metastatic breast cancer patients versus healthy individuals (in words) [1]: bind and significantly higher levels
